Assays:
[1] = system: chymotrypsin-like activity of the core particle (CP; 20S); test: Inhibition of chymotrypsin-like peptidase activity of the proteasome core particle
[2] = system: polyubiquitinated proteins in MDA-MB-231 cells; test: Accumulation of polyubiquitinated proteins in treated MDA-MB-231 cells (Western blot, FK-1); assay type: cell-based; conditions: MDA-MB-231, 24 hrs, 160 nM; FIG. 3E
[3] = molecular target: 26S proteasome assembly; test: Inhibition of proteinase activity of the 26S proteasome (casein-BODIPY degradation); conditions: read-out: IC50, inhibition of proteinase activity of the 26S proteasome assembly; model substrate casein-BODIPY; FIG. 1C
[4] = system: MCF-10A cells; assay type: cell-based; conditions: 160 nM; FIG. 3D
[5] = molecular target: core particle (20S) activated by regulatory particle 19S; test: In vitro activation of the core by purified regulatory particle 19S (26S reconstruction); assay type: biochemical; conditions: FIG. 2E; read-out: IC50, interference with in vitro activation of the core by purified regulatory particle 19S
Text: (§1) The grooves are utilized by Rpt2, Rpt3 and Rpt5 subunits that anchor the regulatory particle to the core particle (Lander, et al., 2009). The anchoring C-terminal tails of Rpt2 and Rpt5 subunits are responsible for core particle gate opening and activation (Lander, et al., 2009). Activation of the core by both Rpt2 and Rpt5 tails is affected by B1 (FIG. 2C). The groove accommodating the C-terminal tail of Rpt2 subunit may be a primary docking place for B1, or B1 may allosterically affect binding of Rpt2 C-terminal tail with an exceptionally high efficiency (FIG. 2D). In vitro reconstruction of the 26S proteasome assembly from the core particle (20S) and regulatory particle (19S) components is attenuated by the treatment with B1 (FIG. 2E).

[6] = molecular target: mTOR (Homo sapiens, UniProt P42345); test: mTOR activity in HeLa cells (Western blot with anti-phosphoS6 antibodies); assay type: cell-based; conditions: up to 100 nM, FIG. 3B
[7] = system: MCF-7 cells; assay type: cell-based
[8] = system: core proteasome α face (gate conformers); test: Atomic force microscopy (AFM) imaging of core proteasome gate conformers; conditions: FIG. 1E
[9] = Stability in the presence of cell lysate or purified CP (RP-HPLC); assay type: in vitro ADME; conditions: cell lysate 0.5 mg/ml or purified CP, up to 1 h at 37° C., FIG. 3C
Protocol: (§2) The in vitro effects of the compound B1 are also detectable in cell lysates (FIGS. 3A-E). The total chymotrypsin-like activity of the proteasome in the Mcf7 and Mcf10A lysates was measured. […] Also, B1 appears to be stable in the presence of the whole cell lysate or the purified core particle (FIG. 3C).

[10] = system: proteasome chymotrypsin-like activity in Mcf7 lysate; test: Total chymotrypsin-like activity of the proteasome in cell lysates; assay type: biochemical
Protocol: as §2

[11] = system: proteasome (20S and 26S) in multiple myeloma cells; test: Proteasome activity in lysates of treated cultured multiple myeloma cells; assay type: cell-based
[12] = system: MDA-MB-231 cells; assay type: cell-based
[13] = system: post-glutamyl peptidase of the core particle; test: Inhibition of post-glutamyl peptidase of the core particle; conditions: allosteric, noncompetitive
[14] = molecular target: core proteasome activated by Rpt2 and Rpt5 tail peptides; test: Blocking activation of core proteasome chymotrypsin-like activity by Rpt2 and Rpt5 tail peptides; assay type: biochemical
Text: as §1

[15] = system: multiple myeloma RPMI8226 cells; test: Growth and viability of multiple myeloma RPMI8226 cells; assay type: cell-based; conditions: B1 alone
[16] = Solubility in solvents; assay type: physicochemical
[17] = Chou-Talalay, fraction affected >0.3, mostly 1:1 conc. ratio

COc1cc(CCCOC(=O)C2CCCCN2C(=O)C(=O)C2CCCCC2)cc(OC)c1OC (stereo not drawn) [B1]
Combined effect with bortezomib on chymotrypsin-like activity of the core particle ([1]; in vitro, FIG. 1D): synergizes with bortezomib | IC50 ([1]; read-out: IC50, inhibition of chymotrypsin-like activity of the core particle, FIG. 1B): 19 nM | Polyubiquitinated proteins in lysates of treated cells [2]: accumulation of polyubiquitinated proteins | IC50 [3]: 41 nM | Cytotoxicity to non-cancerous Mcf10A cells [4]: refractory to the treatment | IC50 [5]: 7.8 nM | Effect on mTOR activity [6]: does not inhibit mTOR activity | Cytotoxicity to MCF-7 cells ([7]; B1 alone, 40 nM, 24 hrs, trypan blue exclusion, FIG. 3D): cytotoxic | Combination Index (CI) with bortezomib, MCF-7 [7, 17]: below 1 | Effect on open-gate/closed-gate conformers of the core proteasome (AFM) ([8]; B1 treatment (100 nM)): shift toward higher abundance of the open gate conformers | Content of open-gate conformers in the treated core particle (AFM) [8]: unusually high content of open-gate conformers | Stability in the presence of cell lysate or purified CP [9]: remains intact | Inhibition of total chymotrypsin-like activity of the proteasome in Mcf7 lysate [10]: well pronounced | Total proteasome activity in lysates of treated cells versus DMSO control ([11]; 50 nM B1, model peptide substrate, FIG. 3F left): lower than in control cells | Partition of activities between core particle (20S) and 26S assembly ([11]; 50 nM B1, non-denaturing gels, FIG. 3F right): shifted in the B1-treated cells toward more of the 20S and less of the 26S proteasomes | Cytotoxicity to MDA-MB-231 cells ([12]; B1 alone, 160 nM, 24 hrs, trypan blue exclusion, FIG. 3D): cytotoxic | Combination Index (CI) with bortezomib, MDA-MB-231 [12, 17]: below 1 | Effect on post-glutamyl peptidase of the core particle [13]: inhibits | IC50 ([14]; FIG. 2C): ~2 nM | Blocking activation of the core by the Rpt2 tail ([14]; tail present at high, micromolar-range concentrations, FIG. 2D): exceptionally effective | Effect on growth of multiple myeloma RPMI8226 cells ([15]; FIG. 3D right): efficiently prevented growth | IC50 ([15]; Homo sapiens, RPMI-8226, FIG. 3D, read-out: IC50, multiple myeloma cultured cells): 59 nM

COc1cc(CCCNC(=O)C2CCCCN2C(=O)C(=O)C2CCCCC2)cc(OC)c1OC (stereo not drawn) [B2]
Inhibitory properties toward the core proteasome after modification of B1 [1]: does not erase the inhibitory properties | Soluble in [16]: DMSO, CDCl3

COc1cc(/C=C/CCCOC(=O)C2CCCCN2C(=O)C(=O)C2CCCCC2)cc(OC)c1OC (stereo not drawn) [B4]
Inhibitory properties toward the core proteasome after modification of B1 [1]: does not erase the inhibitory properties

COc1cc(CCCCCOC(=O)C2CCCCN2C(=O)C(=O)C2CCCCC2)cc(OC)c1OC (stereo not drawn) [B5]
Inhibitory properties toward the core proteasome after modification of B1 [1]: does not erase the inhibitory properties

CO[C@@H](C[C@@H]1CC[C@@H](C)[C@](O)(C(=O)C(=O)N2CCCC[C@H]2C(=O)[O-])O1)/C(C)=C/C=C/C=C/[C@@H](C)C[C@@H](C)C(=O)[C@H](OC)[C@H](O)/C(C)=C/[C@@H](C)C(=O)/C=C/[C@H](C)C[C@@H]1CC[C@@H](O)[C@H](OC)C1.[Na+] [seco-rapamycin, reference compound]
Content of open-gate conformers in the treated core particle (AFM) [8]: unusually high content of open-gate conformers
